Where two headings read alike, the source gives them in different places.
How the values were obtained:
PDGFRβ = PDGFRβ (Homo sapiens, UniProt P09619); assay: PDGFR kinase assay, Caliper microfluidic mobility shift; type: biochemical; details: compound at 1 µM, averages of two separate experiments
Method: (§1) In vitro inhibitory activities of all compounds at 1 μM against PDGFRα and PDGFRβ were evaluated using Caliper microfluidic mobility shift technology. […] At the same concentration, only E5 inhibited greater than 50% of PDGFRβ activity (Fig. 2B).
(§2) PDGFR kinase activity was measured using Caliper microfluidic mobility shift technology. Briefly, 2 μL compound solution (25 μM) in 25% DMSO per well were added into the 384 well microtiter plates. Then, 10 μL per well of enzyme solution (100 mM HEPES, 10 mM MgCl2, Brij35 (30%) 100 μL, 1 mM DTT, 20 ng enzyme) was added. After a brief centrifugation at 1,000 rpm, the kinase reactions were started by addition of 38 μL per well of peptide/ATP-solution (40 μM ATP, 6.5 μM peptide 5′-FAM-KKKKEEIYFFF-NH2, Tris-HCl buffer, pH 7.0) incubated at 30 °C for 60 min and stopped by the addition of 20 μL 35 mM EDTA per well. The electrophoretic separation of the phosphorylated and non-phosphorylated peptides was then carried out on LabChip EZ Reader II (Caliper Life Sciences). All other kinase reactions were carried out as previously reported using the Kinase-Glo Plus or ADP-Glo assay. Kinase inhibition rates were calculated per manufacturer’s instructions.

PDGFRα = PDGFRα (Homo sapiens, UniProt P16234); assay: as above; type: biochemical; details: compound at 1 µM, averages of two separate experiments
Method: as §1, §2

MHCC97-L = assay: CellTiter-Glo luminescent cell viability assay; type: cell-based; details: 120 h incubation, read-out: Anti-proliferative activity IC50 MHCC97-L
Excerpt: (§3) The in vitro antitumor activity of all compounds was screened against six HCC cell lines by CellTiter-Glo luminescent cell viability assay as described earlier. […] After a comprehensive assessment of PDGFR inhibition, cellular activity against HCC cells as well as potential druggability, E5 was chosen to investigate its kinase profiling, antitumor activity and molecular mechanism in the following study. […]
(§4) authenticated by using short tandem repeat (STR) matching analysis. No mycoplasma contamination was detected.
(§5) CellTiter-Glo luminescent cell viability assay
(§6) For experiments hepatocellular carcinoma cells were seeded at 4000 cells per well in 96-well plates. After overnight incubation, solution of compounds in DMSO at various concentrations were added to the cells and further incubated for 120 h. Cell viability was measured with the CellTiter-Glo Luminescent Cell Viability Assay (Promega) according to the manufacturer’s instructions. Luminescence was measured using an EnVision Multilabel Plate Reader (Perkin-Elmer). The cytotoxicity of the compounds was expressed as the percent age of luminescence relative to that of untreated cells . The concentration of compound producing 50% of cell proliferation (IC50) was calculated by nonlinear regression analysis of the response-concentration (log) curve, using the Graph-Pad Prism program package (Graph Pad Software; San Diego, CA). Results are expressed as the means of two […] experiments

QGY-7703 = assay: CellTiter-Glo luminescent cell viability assay; type: cell-based; details: read-out: Anti-proliferative activity IC50 QGY-7703
Excerpt: as §3, §4, §5, §6

SNU368 = assay: CellTiter-Glo luminescent cell viability assay; type: cell-based; details: 120 h incubation, read-out: Anti-proliferative activity IC50 SNU368
Excerpt: as §3, §4, §5, §6

SMMC-7721 = assay: CellTiter-Glo luminescent cell viability assay; type: cell-based; details: read-out: Anti-proliferative activity IC50 SMMC-7721
Excerpt: as §3, §4, §5, §6

BEL7404 = assay: CellTiter-Glo luminescent cell viability assay; type: cell-based; details: read-out: Anti-proliferative activity IC50 BEL7404
Excerpt: as §3, §4, §5, §6

Hep3B = assay: CellTiter-Glo luminescent cell viability assay; type: cell-based; details: 120 h incubation, read-out: Anti-proliferative activity IC50 Hep3B
Excerpt: as §3, §4, §5, §6

Sequence of PDGFRα (P16234 24-1089): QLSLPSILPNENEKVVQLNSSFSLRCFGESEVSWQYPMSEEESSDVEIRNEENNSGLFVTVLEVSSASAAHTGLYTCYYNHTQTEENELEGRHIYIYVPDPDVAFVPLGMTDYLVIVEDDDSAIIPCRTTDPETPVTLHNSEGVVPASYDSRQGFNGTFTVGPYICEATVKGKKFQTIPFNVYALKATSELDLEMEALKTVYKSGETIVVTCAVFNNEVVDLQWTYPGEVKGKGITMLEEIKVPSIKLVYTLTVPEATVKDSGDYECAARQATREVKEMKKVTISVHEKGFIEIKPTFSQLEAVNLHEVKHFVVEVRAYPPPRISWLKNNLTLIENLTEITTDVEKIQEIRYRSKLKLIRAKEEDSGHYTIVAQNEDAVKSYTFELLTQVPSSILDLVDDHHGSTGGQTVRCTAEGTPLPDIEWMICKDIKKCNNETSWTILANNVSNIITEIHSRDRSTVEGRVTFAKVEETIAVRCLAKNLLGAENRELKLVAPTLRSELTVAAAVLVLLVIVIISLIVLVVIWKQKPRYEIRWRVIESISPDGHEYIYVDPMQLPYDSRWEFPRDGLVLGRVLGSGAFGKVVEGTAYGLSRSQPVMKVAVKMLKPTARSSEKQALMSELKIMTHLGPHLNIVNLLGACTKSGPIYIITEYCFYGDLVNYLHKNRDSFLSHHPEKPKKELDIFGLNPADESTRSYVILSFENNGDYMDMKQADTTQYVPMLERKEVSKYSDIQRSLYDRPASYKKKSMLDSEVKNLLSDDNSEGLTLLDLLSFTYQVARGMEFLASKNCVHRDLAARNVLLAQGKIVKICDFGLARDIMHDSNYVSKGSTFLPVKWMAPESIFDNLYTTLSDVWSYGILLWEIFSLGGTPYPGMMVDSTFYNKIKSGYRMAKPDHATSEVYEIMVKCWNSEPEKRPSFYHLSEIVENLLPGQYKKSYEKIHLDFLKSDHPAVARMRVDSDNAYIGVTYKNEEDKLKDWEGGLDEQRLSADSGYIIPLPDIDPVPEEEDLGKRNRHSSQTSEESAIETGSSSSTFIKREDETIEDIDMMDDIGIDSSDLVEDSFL
Sequence of PDGFRβ (P09619 33-1106): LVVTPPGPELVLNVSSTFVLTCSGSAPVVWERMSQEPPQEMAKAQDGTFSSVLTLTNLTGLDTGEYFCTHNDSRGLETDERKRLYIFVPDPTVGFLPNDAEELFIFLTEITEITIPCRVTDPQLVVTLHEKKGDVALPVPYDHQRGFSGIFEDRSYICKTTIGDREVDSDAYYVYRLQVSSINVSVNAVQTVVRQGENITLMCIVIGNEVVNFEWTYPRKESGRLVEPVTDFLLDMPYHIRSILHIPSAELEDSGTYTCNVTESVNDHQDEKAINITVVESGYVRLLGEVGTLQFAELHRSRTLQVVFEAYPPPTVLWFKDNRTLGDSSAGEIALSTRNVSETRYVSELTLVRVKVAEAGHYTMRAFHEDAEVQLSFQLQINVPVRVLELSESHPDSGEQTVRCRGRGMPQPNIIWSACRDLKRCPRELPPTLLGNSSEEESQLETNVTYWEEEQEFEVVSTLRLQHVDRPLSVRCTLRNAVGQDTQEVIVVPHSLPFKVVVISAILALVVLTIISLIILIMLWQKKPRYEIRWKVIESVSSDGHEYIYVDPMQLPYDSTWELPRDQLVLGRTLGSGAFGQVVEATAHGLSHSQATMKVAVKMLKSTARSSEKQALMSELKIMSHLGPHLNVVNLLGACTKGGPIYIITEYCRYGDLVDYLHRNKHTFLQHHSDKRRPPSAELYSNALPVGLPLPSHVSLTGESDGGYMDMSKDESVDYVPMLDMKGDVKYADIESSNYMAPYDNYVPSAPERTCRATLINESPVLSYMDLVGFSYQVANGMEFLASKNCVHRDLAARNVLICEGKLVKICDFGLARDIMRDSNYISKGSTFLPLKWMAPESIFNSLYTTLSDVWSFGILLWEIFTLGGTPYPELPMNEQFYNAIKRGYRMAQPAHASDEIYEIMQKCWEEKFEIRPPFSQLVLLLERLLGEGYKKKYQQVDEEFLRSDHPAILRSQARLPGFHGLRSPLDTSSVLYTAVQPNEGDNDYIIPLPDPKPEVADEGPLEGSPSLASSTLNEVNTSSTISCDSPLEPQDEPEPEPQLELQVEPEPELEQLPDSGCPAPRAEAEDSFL

| SMILES | Inhibition effect (%) PDGFRβ (PDGFRβ) | Inhibition effect (%) PDGFRα (PDGFRα) | IC50 (MHCC97-L) | IC50 (QGY-7703; 120 h incubation) | IC50 (SNU368) | IC50 (SMMC-7721; 120 h incubation) | IC50 (BEL7404; 120 h incubation) | IC50 (Hep3B) | inhibition at 1 µM (PDGFRβ; read-out: Inhibition effect (%) PDGFRβ) | inhibition at 1 µM (PDGFRα; read-out: Inhibition effect (%) PDGFRα) | IC50 (MHCC97-L; MHCC97L) | IC50 (QGY-7703; Homo sapiens, QGY-7703, 120 h incubation) | IC50 (SMMC-7721; Homo sapiens, SMMC-7721, 120 h incubation) | IC50 (BEL7404; Homo sapiens, BEL-7404, 120 h incubation) | IC50 (Hep3B; Homo sapiens, Hep3B) |
| --- | --- | --- | --- | --- | --- | --- | --- | --- | --- | --- | --- | --- | --- | --- | --- |
| Cc1ccc(NC(=O)c2ccc(Cl)cc2)cc1Oc1nccc(-c2cccnc2)n1 [A6] | 35.96% | 47.73% | 16.2 µM | 21.9 µM | 24 µM | 12.3 µM | 9.5 µM | 10.7 µM | – | – | – | – | – | – | – |
| Cc1ccc(NC(=O)c2ccc(F)cc2)cc1Oc1nccc(-c2ccccc2)n1 [B10] | 15.63% | 19.57% | 6.3 µM | 10.9 µM | 12.6 µM | 3.9 µM | 8.1 µM | 5.8 µM | – | – | – | – | – | – | – |
| Cc1ccc(NC(=O)c2cccc(Cl)c2)cc1Oc1nccc(-c2ccccc2)n1 [B7] | 16.63% | 31.49% | > 200 µM | 25.8 µM | 14 µM | 17 µM | 18.3 µM | 15.5 µM | – | – | – | – | – | – | – |
| Cc1ccc(NC(=O)CN2CCOCC2)cc1Oc1nccc(-c2cc3ccccc3o2)n1 [E7] | 19.39% | 18.56% | 59.1 µM | 10.3 µM | 14.7 µM | 4.6 µM | 5.9 µM | 9 µM | – | – | – | – | – | – | – |
| Cc1ccc(N)cc1Oc1nccc(-c2cccnc2)n1 [A1] | – | – | – | – | 85.7 µM | – | – | – | 21.4% | 39.1% | 15.1 µM | 24.5 µM | 13.6 µM | 10.8 µM | 15.8 µM |
| Cc1ccc(NC(=O)c2ccncc2)cc1Oc1nccc(-c2ccccc2)n1 [B12] | 20.65% | 25.66% | 44 µM | 27.6 µM | 18 µM | 8.8 µM | 13.4 µM | 17.7 µM | – | – | – | – | – | – | – |
| Cc1cccc(C(=O)Nc2ccc(C)c(Oc3nccc(-c4ccccc4)n3)c2)c1 [B4] | 24.42% | 35.04% | 7 µM | 10.2 µM | 12.9 µM | 6.2 µM | 9.5 µM | 6.4 µM | – | – | – | – | – | – | – |
| Cc1ccc(NC(=O)c2cccnc2)cc1Oc1nccc(-c2ccccc2)n1 [B11] | 5.08% | 32.00% | 53.5 µM | 81.1 µM | 18 µM | 20.2 µM | 21.6 µM | 44.2 µM | – | – | – | – | – | – | – |
| Cc1ccc(NC(=O)c2ccc(Cl)cc2)cc1Oc1nccc(-c2cccc3ccccc23)n1 [C6] | -0.94% | 24.14% | > 200 µM | 19.2 µM | 17.2 µM | 14.3 µM | 6.7 µM | 19.7 µM | – | – | – | – | – | – | – |
| Cc1ccc(NC(=O)CN2CCN(C)CC2)cc1Oc1nccc(-c2cc3ccccc3o2)n1 [E6] | -0.44% | -1.24% | 16.7 µM | 29.5 µM | 31.6 µM | 27.7 µM | 38.1 µM | 11.7 µM | – | – | – | – | – | – | – |
| Cc1ccc(NC(=O)c2cccc([N+](=O)[O-])c2)cc1Oc1nccc(-c2cccnc2)n1 [A9] | 23.41% | 23.63% | 53.2 µM | 48.4 µM | 51.5 µM | 26.8 µM | 23.8 µM | 28.4 µM | – | – | – | – | – | – | – |
| CCC(=O)Nc1ccc(C)c(Oc2nccc(-c3cc4ccccc4o3)n2)c1 [E2] | 10.10% | 19.06% | 5.5 µM | 0.4 µM | 13.2 µM | 0.2 µM | 8.2 µM | 74.6 µM | – | – | – | – | – | – | – |
| Cc1ccc(NC(=O)Cc2ccccc2)cc1Oc1nccc(-c2ccco2)n1 [D2] | 46.75% | 36.82% | 26.4 µM | 42.2 µM | 43.8 µM | 21.6 µM | 32.8 µM | 28.3 µM | – | – | – | – | – | – | – |
| Cc1ccc(NC(=O)c2cccs2)cc1Oc1nccc(-c2cccc3ccccc23)n1 [C5] | 5.08% | 16.27% | 28 µM | 35.2 µM | 28.4 µM | 16.8 µM | 20.8 µM | 17 µM | – | – | – | – | – | – | – |
| Cc1ccc(NC(=O)CO)cc1Oc1nccc(-c2cc3ccccc3o2)n1 [E8] | 14.62% | 26.16% | 13.6 µM | 3.3 µM | 6.3 µM | 2.5 µM | 2.8 µM | 3.8 µM | – | – | – | – | – | – | – |
| Cc1ccc(NC(=O)c2cccnc2)cc1Oc1nccc(-c2cccnc2)n1 [A11] | 6.84% | 42.91% | 89.3 µM | 252 µM | 94.6 µM | 79.7 µM | 74.2 µM | 105 µM | – | – | – | – | – | – | – |
| Cc1ccc(NC(=O)c2cccc(Cl)c2)cc1Oc1nccc(-c2ccco2)n1 [D5] | 43.49% | 51.79% | 14.7 µM | 22.5 µM | 24 µM | 12.4 µM | 12.4 µM | 11.2 µM | – | – | – | – | – | – | – |
